A short description of the data set: Chemical stability of the compound assessed as half life at 1.25 mM in presence of glutathione by NMR analysis. The class given is physicochemical. Conditions: gsh.

Broadly, the half-life is the time needed for the level to fall by half in the phase considered.

Regarding `CN1CCN(CCCOc2ccc(-c3ccnc(C#N)c3)cc2C(F)(F)F)CC1`, the half-life at 1250 µM is 5 days.
The same measure for `CN1CCN(CCCOc2ccc(-c3cccc(C#N)n3)cc2C(F)(F)F)CC1`: 6.25 days.

Source of the values: ChEMBL document CHEMBL1208705, “4-(3-Trifluoromethylphenyl)-pyrimidine-2-carbonitrile as cathepsin S inhibitors: N3, not N1 is critically important” (Bioorg Med Chem Lett, 2010).
